Results published in ChEMBL document CHEMBL3621163, “Phenothiazine-based CaaX competitive inhibitors of human farnesyltransferase bearing a cysteine, methionine, serine or valine moiety as a new family of antitumoral compounds” (Bioorg Med Chem Lett, 2015).
pIC50: −log10 of the molar value.

What was measured:
Assay type in all cases: protein-complex assay
[1] = target: T1, Protein farnesyltransferase (Homo sapiens, UniProt P49354+P49356); assay: Inhibition of recombinant human FTase using FPP/dansyl-GCVLS as substrate at 100 uM measured for 15 mins by fluorimetric analysis relative to control
[2] = target: T1, Protein farnesyltransferase; assay: Inhibition of recombinant human FTase using FPP/dansyl-GCVLS as substrate measured for 15 mins by fluorimetric analysis
[3] = target: T1, Protein farnesyltransferase; assay: Inhibition of human FTase

| inhibition [1] | pIC50 [2] | pIC50 [3] | Structure (SMILES) |
| --- | --- | --- | --- |
| 15% |  |  | CCOC(=O)[C@H](CS)NC(=O)CCn1c2ccccc2c2ccccc21 |
| 23% |  |  | COC(=O)[C@H](CO)NC(=O)CCn1c2ccccc2c2ccccc21 |
| 12% |  |  | COC(=O)[C@@H](NC(=O)CCn1c2ccccc2c2ccccc21)C(C)C |
| 96% | 4.72 |  | CSCC[C@H](NC(=O)CCN1c2ccccc2Sc2ccc(Cl)cc21)C(=O)O |
| 33% |  |  | O=C(CCn1c2ccccc2c2ccccc21)N[C@@H](CO)C(=O)O |
| 51% |  |  | COC(=O)[C@H](CCSC)NC(=O)CCn1c2ccccc2c2ccccc21 |
| 92% | 4.93 |  | CSCC[C@H](NC(=O)CCN1c2ccccc2Sc2ccccc21)C(=O)O |
| 0% |  |  | CCOC(=O)[C@H](CSSC[C@H](NC(=O)CCN1c2ccccc2Sc2ccccc21)C(=O)OCC)NC(=O)CCN1c2ccccc2Sc2ccccc21 |
| 73% | 4.40 |  | CSCC[C@H](NC(=O)CCn1c2ccccc2c2ccccc21)C(=O)O |
| 0% |  |  | COC(=O)[C@H](CCSC)NC(=O)CCN1c2ccccc2Sc2ccc(Cl)cc21 |
| 52% |  |  | COC(=O)[C@@H](NC(=O)CCN1c2ccccc2Sc2ccccc21)C(C)C |
| 76% | 4.35 |  | CC(C)[C@H](NC(=O)CCN1c2ccccc2Sc2ccccc21)C(=O)O |
| 63% |  |  | COC(=O)[C@H](CO)NC(=O)CCN1c2ccccc2Sc2ccccc21 |
| 5% |  |  | COC(=O)[C@H](CCSC)NC(=O)CCN1c2ccccc2Sc2ccccc21 |
| 94% | 4.92 |  | O=C(CCN1c2ccccc2Sc2ccccc21)N[C@@H](CO)C(=O)O |
| 67% | 4.18 |  | O=C(CCn1c2ccccc2c2ccccc21)N[C@@H](CS)C(=O)O |
| 10% |  |  | CCOC(=O)[C@H](CS)NC(=O)CCN1c2ccccc2Sc2ccccc21 |
| 92% | 5.33 |  | O=C(CCN1c2ccccc2Sc2ccccc21)N[C@@H](CS)C(=O)O |
|  |  | 4.46 | O=C(CCn1c2ccccc2c2ccccc21)OCCS |
| 22% |  |  | CC(C)[C@H](NC(=O)CCn1c2ccccc2c2ccccc21)C(=O)O |
